From PMC11472310, “Distinctive Immune Signatures Driven by Structural Alterations in Desmuramylpeptide NOD2 Agonists” (Journal of Medicinal Chemistry, 2024)
Like-named read-outs stand apart in the source and are kept apart here.

Tests used:
[1] = tested on: CD4+ T cells cocultured with BMDCs; test: BMDC antigen presentation to ovalbumin-specific CD4+ T cells (OT II); assay type: cell-based, C57BL/6 mouse; conditions: BMDCs pretreated 10 μM + ovalbumin 50 μg/mL 18 h, coculture 72 h; OVA-treated cells 63.8%
Method: For this study, we narrowed down the selection of suitable desmuramylpeptides even further. In order to assess the adjuvant potential of selected desmuramylpeptides with regard to their effect on DC-mediated activation of CD4^+ and CD8^+ T cells, we conducted an ex vivo antigen-presentation assay utilizing C57BL/6 mouse bone marrow-derived DCs (BMDCs). Upon stimulation with desmuramylpeptides at 10 μM, in conjunction with ovalbumin soluble protein (50 μg/mL), BMDCs were cocultured with carboxyfluorescein succinimidyl ester (CFSE)-labeled naïve ovalbumin-specific CD4^+ or CD8^+ T cells, which were isolated from splenocytes of OT II and OT I transgenic mice, respectively. […] Additionally, we investigated how the priming of T cells elicited by the tested compounds impacted the cytokine profiles secreted in BMDC/T-cell cocultures.
CD4^+ and CD8^+ T cells were isolated from splenocytes of OT II and OT I transgenic mice using CD4^+ and CD8^+ T cell isolation kits (Miltenyi Biotec, Germany) following the manufacturer’s instructions. The purified T cells were labeled with CFSE (Invitrogen, Carlsbad, CA, USA) and subsequently washed. Next, 5 × 10^4 T cells were combined with 1 × 10^4 BMDCs/well (pretreated with desmuramylpeptides at 10 μM and 50 μg/mL ovalbumin [Invivogen, San Diego, CA, USA] for 18 h and then washed). Following a 72-h incubation period at 37 °C with 5% CO2, supernatants were harvested and stored at −80 °C for cytokine analysis. The cells were then stained with Fixable viability dye eFluor 780 (eBioscience, Thermo Fisher Scientific, MA, USA), anti-Thy1.2-PE-Cy7 antibodies (Biolegend, San Diego, CA, USA), anti-CD8-eFluor450 antibodies (eBioscience), anti-CD4-eFluor450 antibodies (eBioscience), and anti-CD25-APC antibodies (Biolegend) before analysis using a Beckman Coulter Cytoflex S flow cytometer (CA, USA) and FlowJo software (Tree Star, Inc., Ashland, OR, USA). Live Thy1.2+/CD4+ and Thy1.2+/CD8+ cells were assessed for CFSE dilution and CD25 expression. Each experiment was performed in duplicate and repeated in two independent biological replicates. Statistical significance was determined using paired t tests.

hNOD2 = target: T1, hNOD2 (Homo sapiens, UniProt Q9HC29); test: HEK-Blue NOD2 cell line reporter assay (NF-κB-inducible SEAP); assay type: cell-based; conditions: for EC50: HEK-Blue NOD2 cells, 18 h
T1 construct: host or cells: HEK-Blue NOD2 cells (HEK293)
T1 sequence (Q9HC29 whole entry): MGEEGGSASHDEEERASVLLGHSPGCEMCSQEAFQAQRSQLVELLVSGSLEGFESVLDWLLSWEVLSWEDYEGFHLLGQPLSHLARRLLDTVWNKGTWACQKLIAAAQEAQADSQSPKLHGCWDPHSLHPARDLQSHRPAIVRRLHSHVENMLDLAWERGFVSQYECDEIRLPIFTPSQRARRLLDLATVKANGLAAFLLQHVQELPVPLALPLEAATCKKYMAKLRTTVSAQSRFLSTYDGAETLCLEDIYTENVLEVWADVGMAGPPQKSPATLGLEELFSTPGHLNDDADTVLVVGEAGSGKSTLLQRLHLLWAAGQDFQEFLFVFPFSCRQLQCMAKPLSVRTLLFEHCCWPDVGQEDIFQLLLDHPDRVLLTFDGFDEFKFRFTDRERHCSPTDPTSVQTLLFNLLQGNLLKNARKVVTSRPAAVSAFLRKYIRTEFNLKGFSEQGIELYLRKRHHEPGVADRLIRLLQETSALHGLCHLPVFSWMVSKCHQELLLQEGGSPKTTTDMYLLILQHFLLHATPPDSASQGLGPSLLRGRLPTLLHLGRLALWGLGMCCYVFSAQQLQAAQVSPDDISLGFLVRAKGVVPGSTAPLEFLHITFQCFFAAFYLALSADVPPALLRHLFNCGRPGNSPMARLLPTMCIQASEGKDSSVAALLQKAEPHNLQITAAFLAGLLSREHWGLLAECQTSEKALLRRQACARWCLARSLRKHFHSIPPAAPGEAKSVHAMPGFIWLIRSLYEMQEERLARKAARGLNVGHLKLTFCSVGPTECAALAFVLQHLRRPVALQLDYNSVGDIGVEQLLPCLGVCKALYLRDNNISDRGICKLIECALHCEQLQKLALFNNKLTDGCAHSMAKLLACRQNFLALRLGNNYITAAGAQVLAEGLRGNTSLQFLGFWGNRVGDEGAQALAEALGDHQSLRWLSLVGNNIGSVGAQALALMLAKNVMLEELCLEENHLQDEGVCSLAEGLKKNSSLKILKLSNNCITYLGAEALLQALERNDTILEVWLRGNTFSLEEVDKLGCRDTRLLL
Procedure, shortened: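 HEK293 cells cotransfected with hNOD2 and an NF-κB-inducible SEAP reporter, exposed to compounds dose-dependently for 18 h at 37 °C, 5% CO2. SEAP read by absorbance at 630 nm; EC50 values from dose-response, duplicate wells, at least two independent biological replicates.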

K562 cancer cells = test: PBMC cytotoxicity against K562 cancer cells (flow cytometry); assay type: cell-based; conditions: for cytotoxicity of PBMCs against K562 cells, cotreatment with LPS (relative to negative control) / Cytotoxicity (ratio to control), + LPS: 10 μM + LPS 1 μg/mL; for cytotoxicity of PBMCs against K562 cells, cotreatment with LPS (relative to negative control) / enhancement of cytotoxicity of PBMCs against K562 cells (relative to negative control): 18 h, then 4 h coincubation; for cytotoxicity of PBMCs against K562 cells, cotreatment with LPS (relative to negative control): 40:1; for Cytotoxicity (ratio to control), + LPS / Cytotoxicity (ratio to control): Table S2; for Cytotoxicity (ratio to control) / enhancement of cytotoxicity of PBMCs against K562 cells (relative to negative control): alone: compounds 10 μM, LPS 1 μg/mL, IL-2 200 U/mL; for enhancement of cytotoxicity of PBMCs against K562 cells (relative to negative control): effector:target 40:1
Method: In this study, we investigated the potential of desmuramylpeptides, both alone and in combination with LPS, to enhance the cytotoxic activity of PBMCs against cancer cells employing a flow-cytometry-based cytotoxicity assay based on coincubation of preactivated PBMCs with fluorescently labeled K562 cancer cells.[82] Among the diverse subpopulations within PBMCs, natural killer (NK) cells play a pivotal role in detecting and eliminating cancer cells. NOD2-mediated NK cell activity against cancer cells arises from both direct NOD2 agonist elicited cytolytic activity of NK cells[83] and indirect activation through cytokine release by other NOD2-responsive cells, such as monocytes, which comprise approximately 10% of PBMCs; such interactions potentially reinforce the immune response.[84] […] To that end, we utilized the entire PBMC population as effector cells rather than isolated NK cells, to mimic conditions more closely resembling the in vivo environment while K562 chronic myelogenous leukemia cells were used as the target cells in a 40:1 effector to target cell ratio.[87]
(§1) The PBMC cytotoxicity assays utilizing K562 cells were conducted following previously established methods, with some adjustments.[82] […] Meanwhile, K562 cells were stained with CFSE (Invitrogen, Carlsbad, CA, USA), washed twice with complete medium, and then added (1 × 10^4 cells per well) to the pretreated PBMCs to achieve a final effector cell to target tumor cell ratio of 40:1. Following a 4-h coincubation period at 37 °C with 5% CO2, cells were stained with Sytox blue dead cell stain (Invitrogen) and analyzed using an Attune NxT flow cytometer (Thermo Fisher Scientific, Waltham, MA, USA) along with FlowJo software (Tree Star, Inc., Ashland, OR, USA). Cells positive for both CFSE and Sytox blue were designated as dead K562 cells. PBMCs alone and CFSE-labeled cancer cells alone were also exposed to the compounds at equivalent concentrations and stained with Sytox blue to assess any direct cytotoxic effects of the compounds on PBMCs and cancer cells separately. Each experiment was conducted in duplicate and repeated in three independent biological replicates. Statistical analysis was performed using one-way ANOVA followed by Dunnett’s multiple comparisons test.

PBMCs = test: Direct cytotoxic effect of compounds on PBMCs (Sytox blue); assay type: cell-based; conditions: Table S2; for Percent of dead PBMCs, + LPS: 10 μM + LPS 1 μg/mL; for Percent of dead PBMCs: alone: compounds 10 μM, LPS 1 μg/mL, IL-2 200 U/mL
Method: Additionally, PBMCs and cancer cells alone were treated with desmuramylpeptides to assess any direct cytotoxic effects on these cells.
as §1

[2] = NF-κB transcriptional activity (SEAP), read-out: EC50 (nM), NOD2 agonistic activity

| EC50 (hNOD2; [2]) [nM] | enhancement in potency compared to 1 (hNOD2; EC50 ratio versus unsubstituted counterpart 1) [fold] | SMILES | fraction of activated and proliferating CD4+ T-cells (CD25+, CFSE low) [1] [%] | EC50 (hNOD2; read-out: EC50, NOD2 agonistic activity (text)) [nM] | cytotoxicity of PBMCs against K562 cells, cotreatment with LPS (relative to negative control) (K562 cancer cells) [fold] | Cytotoxicity (ratio to control), + LPS (K562 cancer cells) | Cytotoxicity (ratio to control) (K562 cancer cells) | enhancement of cytotoxicity of PBMCs against K562 cells (relative to negative control) (K562 cancer cells) | Percent of dead PBMCs, + LPS (PBMCs) | Percent of dead PBMCs (PBMCs) |
| --- | --- | --- | --- | --- | --- | --- | --- | --- | --- | --- |
| 4.6 ± 1.6 | ~17 | CCCC(=O)Oc1ccc(/C=C/C(=O)NCC(=O)N[C@H](C(=O)N[C@H](CCC(=O)OCC)C(=O)OCC)C(C)C)cc1OC [Compound 3, Diethyl ((E)-3-(4-(Butyryloxy)-3-methoxyphenyl)acryloyl)glycyl-L-valyl-D-glutamate] | 77.9 | – | 0.98 | 0.98 ± 0.18 | 1.04 ± 0.06 | no activity | 3.34% ± 0.35% | 1.14% ± 0.23% |
| 105 ± 22.8 | – | CC/C=C\C/C=C\C/C=C\C/C=C\C/C=C\CCCC(=O)Oc1ccc(/C=C/C(=O)NCC(=O)N[C@H](C(=O)N[C@H](CCC(=O)OCC)C(=O)OCC)C(C)C)cc1OC [Compound 23, Diethyl ((E)-3-(4-(((5Z,8Z,11Z,14Z,17Z)-Icosa-5,8,11,14,17-pentaenoyl)oxy)-3-methoxyphenyl)acryloyl)glycyl-L-valyl-D-glutamate] | 79.7 | – | 1.30 | 1.30 ± 0.26 | 1.02 ± 0.08 | no activity | 11.4% ± 2.64% | 1.28% ± 0.06% |

| SMILES | EC50 (hNOD2; [2]) [nM] | enhancement in potency compared to 1 (hNOD2; EC50 ratio versus unsubstituted counterpart 1) [fold] | fraction of activated and proliferating CD4+ T-cells (CD25+, CFSE low) [1] [%] | EC50 (hNOD2; read-out: EC50, NOD2 agonistic activity (text)) [nM] | cytotoxicity of PBMCs against K562 cells, cotreatment with LPS (relative to negative control) (K562 cancer cells) [fold] | Cytotoxicity (ratio to control), + LPS (K562 cancer cells) | Cytotoxicity (ratio to control) (K562 cancer cells) | enhancement of cytotoxicity of PBMCs against K562 cells (relative to negative control) (K562 cancer cells) | Percent of dead PBMCs, + LPS (PBMCs) | Percent of dead PBMCs (PBMCs) |
| --- | --- | --- | --- | --- | --- | --- | --- | --- | --- | --- |
| CCOC(=O)CC[C@@H](NC(=O)[C@@H](NC(=O)CNC(=O)/C=C/c1ccc(OC(=O)CO[C@H]2CC[C@@]3(C)C(=CC[C@H]4[C@@H]5CC[C@H]([C@H](C)CCCC(C)C)[C@@]5(C)CC[C@@H]43)C2)c(OC)c1)C(C)C)C(=O)OCC [Compound 26, Diethyl ((E)-3-(4-(2-(((8S,9S,10R,13R,14S,17R)-10,13-Dimethyl-17-((R)-6-methylheptan-2-yl)-2,3,4,7,8,9,10,11,12,13,14,15,16,17-tetradecahydro-1H-cyclopenta[a]phenanthren-3-yl)oxy)acetoxy)-3-methoxyphenyl)acryloyl)glycyl-L-valyl-D-glutamate] | 12200 | – | 62.7 | 12200 | 2.39 | 2.39 ± 0.27 | 1.34 ± 0.05 | 1.34 fold | 9.93% ± 0.49% | 1.08% ± 0.10% |
